The values that follow come from ChEMBL document CHEMBL1201862, “PubChem BioAssay data set” (2004).

Assay [1] addresses ATP-dependent molecular chaperone HSP82 (Candida albicans (strain WO-1) (Yeast), UniProt C4YTQ8). The assay can be described thus: loss of DOC-induced GRE-beta-galactosidase reporter signal, dose response, Hsp90 inhibitor project, S. cerevisiae, luminescence (AID 2400).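 Further: beta-galactosidase luminescence from glucocorticoid response element reporter as proxy for Hsp90 function; inhibitor potency where signal loss means Hsp90 inhibition.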 In kind it is functional, cell-based.
Assay [2] addresses T1, Replicative DNA helicase DnaB (Mycobacterium tuberculosis, UniProt P9WMR3).
T1 sequence (P9WMR3 whole entry): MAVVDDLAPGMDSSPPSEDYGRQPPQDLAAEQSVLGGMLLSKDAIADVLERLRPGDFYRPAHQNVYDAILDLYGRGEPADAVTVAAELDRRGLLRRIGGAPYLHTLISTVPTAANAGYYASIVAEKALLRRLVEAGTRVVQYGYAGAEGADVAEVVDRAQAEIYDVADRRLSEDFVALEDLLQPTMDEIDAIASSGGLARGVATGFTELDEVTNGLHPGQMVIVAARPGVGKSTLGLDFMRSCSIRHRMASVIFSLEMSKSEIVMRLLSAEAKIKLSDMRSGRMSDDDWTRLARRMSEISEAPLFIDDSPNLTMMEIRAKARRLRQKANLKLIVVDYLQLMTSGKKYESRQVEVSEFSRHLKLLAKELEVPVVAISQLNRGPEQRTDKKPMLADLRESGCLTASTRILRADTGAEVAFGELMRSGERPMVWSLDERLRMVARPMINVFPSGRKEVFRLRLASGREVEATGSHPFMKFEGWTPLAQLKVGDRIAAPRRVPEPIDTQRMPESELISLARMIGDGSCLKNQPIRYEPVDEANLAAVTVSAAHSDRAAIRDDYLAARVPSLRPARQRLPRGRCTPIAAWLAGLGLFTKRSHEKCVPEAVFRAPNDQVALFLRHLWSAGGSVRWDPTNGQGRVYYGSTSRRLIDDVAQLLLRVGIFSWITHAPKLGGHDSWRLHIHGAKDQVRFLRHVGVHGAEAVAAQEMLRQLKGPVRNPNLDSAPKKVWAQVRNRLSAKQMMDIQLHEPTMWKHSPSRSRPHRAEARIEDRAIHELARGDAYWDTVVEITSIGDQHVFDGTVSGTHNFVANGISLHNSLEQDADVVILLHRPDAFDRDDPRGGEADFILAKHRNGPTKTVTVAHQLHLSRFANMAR
The assay can be described thus: DnaB intein splicing inhibitors, dose response, biochemical, cell-free fluorescence (AID 449749). In kind it is functional.

Assay [3] has as its target Serine/threonine-protein kinase Nek4 (Homo sapiens, UniProt P51957). In kind it is functional.
The target in assay [4] is Tyrosine-protein kinase Srms (Homo sapiens, UniProt Q9H3Y6). In kind it is functional.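 Further: SRMS measured as one member of a kinome-wide kinase profiling panel.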
In assay [5] the target is Mitogen-activated protein kinase 12 (Homo sapiens, UniProt P53778). In kind it is functional.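 Further: measured as one member of a kinome-wide kinase profiling panel.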
Assay [6] deals with Protein-tyrosine kinase 6 (Homo sapiens, UniProt Q13882). In kind it is functional.
The target of assay [7] is SRSF protein kinase 1 (Homo sapiens, UniProt Q96SB4). In kind it is functional.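 Further: measured as one member of a kinome-wide kinase profiling panel.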
Sequence of SRSF protein kinase 1 (Q96SB4 whole entry): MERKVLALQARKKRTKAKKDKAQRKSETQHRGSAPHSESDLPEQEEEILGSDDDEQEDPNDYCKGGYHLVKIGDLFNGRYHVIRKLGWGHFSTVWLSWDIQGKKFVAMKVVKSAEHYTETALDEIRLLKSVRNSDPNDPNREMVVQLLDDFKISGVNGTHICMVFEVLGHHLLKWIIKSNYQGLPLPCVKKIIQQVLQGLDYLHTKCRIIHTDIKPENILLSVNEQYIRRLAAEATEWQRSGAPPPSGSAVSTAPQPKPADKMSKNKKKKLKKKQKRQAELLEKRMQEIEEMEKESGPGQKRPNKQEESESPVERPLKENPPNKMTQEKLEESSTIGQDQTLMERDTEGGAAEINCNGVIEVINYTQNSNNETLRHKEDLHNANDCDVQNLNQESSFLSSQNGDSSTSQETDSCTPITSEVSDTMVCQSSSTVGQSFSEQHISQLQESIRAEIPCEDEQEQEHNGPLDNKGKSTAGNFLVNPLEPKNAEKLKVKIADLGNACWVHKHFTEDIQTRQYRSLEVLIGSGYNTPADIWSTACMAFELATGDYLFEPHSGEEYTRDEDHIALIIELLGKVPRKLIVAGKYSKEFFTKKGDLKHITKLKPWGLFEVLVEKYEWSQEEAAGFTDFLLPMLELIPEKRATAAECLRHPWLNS
Assay [8] deals with Serine/threonine-protein kinase D3 (Homo sapiens, UniProt O94806). In kind it is functional.
The target of assay [9] is Mitogen-activated protein kinase kinase kinase kinase 2 (Homo sapiens, UniProt Q12851). In kind it is functional.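 Further: measured as one member of a kinome-wide kinase panel, with MAP4K2 as the panel entry.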
Assay [10] deals with Testis-specific serine/threonine-protein kinase 2 (Homo sapiens, UniProt Q96PF2). In kind it is functional.
The target of assay [11] is Testis-specific serine/threonine-protein kinase 1 (Homo sapiens, UniProt Q9BXA7). In kind it is functional.
In assay [12] the target is RAC-gamma serine/threonine-protein kinase (Homo sapiens, UniProt Q9Y243). In kind it is functional.
Assay [13] addresses Serine/threonine-protein kinase BRSK1 (Homo sapiens, UniProt Q8TDC3). In kind it is functional.
Assay [14] has as its target Casein kinase I isoform gamma-1 (Homo sapiens, UniProt Q9HCP0). In kind it is functional.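 Further: measured as the CSNK1G1 member of a kinome profiling panel.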
Assay [15] deals with Tyrosine-protein kinase JAK2 (Homo sapiens, UniProt O60674). In kind it is functional.
The target in assay [16] is Tyrosine-protein kinase SYK (Homo sapiens, UniProt P43405). In kind it is functional.
Assay [17] addresses Serine/threonine-protein kinase D2 (Homo sapiens, UniProt Q9BZL6). In kind it is functional.
For assay [18], the target named is Serine/threonine-protein kinase PLK4 (Homo sapiens, UniProt O00444). In kind it is functional.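 Further: PLK4 measured as one member of a kinome-wide kinase profiling panel.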
Sequence of Serine/threonine-protein kinase PLK4 (O00444 whole entry): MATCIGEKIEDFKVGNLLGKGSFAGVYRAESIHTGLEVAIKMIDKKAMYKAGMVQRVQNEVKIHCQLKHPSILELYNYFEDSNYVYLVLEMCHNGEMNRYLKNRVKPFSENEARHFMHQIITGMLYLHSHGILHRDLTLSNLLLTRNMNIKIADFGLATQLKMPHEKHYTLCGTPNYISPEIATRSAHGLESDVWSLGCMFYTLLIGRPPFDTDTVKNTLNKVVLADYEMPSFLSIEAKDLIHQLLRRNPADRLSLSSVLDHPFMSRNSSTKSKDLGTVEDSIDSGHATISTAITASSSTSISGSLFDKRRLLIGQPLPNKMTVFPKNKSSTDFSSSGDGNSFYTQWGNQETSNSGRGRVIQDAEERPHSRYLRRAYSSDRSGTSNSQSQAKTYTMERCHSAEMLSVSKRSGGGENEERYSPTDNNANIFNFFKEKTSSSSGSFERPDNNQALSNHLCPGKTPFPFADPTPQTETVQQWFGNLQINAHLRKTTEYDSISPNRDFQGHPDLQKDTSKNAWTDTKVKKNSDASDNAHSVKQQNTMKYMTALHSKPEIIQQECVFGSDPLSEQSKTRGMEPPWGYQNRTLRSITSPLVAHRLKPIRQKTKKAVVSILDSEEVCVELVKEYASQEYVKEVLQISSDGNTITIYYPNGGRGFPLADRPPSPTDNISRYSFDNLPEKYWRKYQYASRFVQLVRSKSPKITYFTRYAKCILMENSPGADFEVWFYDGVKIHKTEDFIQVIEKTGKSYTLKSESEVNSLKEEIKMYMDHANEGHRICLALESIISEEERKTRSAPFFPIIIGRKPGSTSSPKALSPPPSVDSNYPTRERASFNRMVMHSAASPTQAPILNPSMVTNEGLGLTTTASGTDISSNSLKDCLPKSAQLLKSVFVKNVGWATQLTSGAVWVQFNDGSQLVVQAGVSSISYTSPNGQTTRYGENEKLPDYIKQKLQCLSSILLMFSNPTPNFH
The target of assay [19] is T2, Aurora kinase A (Homo sapiens, UniProt O14965).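 Further: value from the Navigating the Kinome kinase panel profiling, panel entry STK6.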
T2 sequence (O14965 whole entry): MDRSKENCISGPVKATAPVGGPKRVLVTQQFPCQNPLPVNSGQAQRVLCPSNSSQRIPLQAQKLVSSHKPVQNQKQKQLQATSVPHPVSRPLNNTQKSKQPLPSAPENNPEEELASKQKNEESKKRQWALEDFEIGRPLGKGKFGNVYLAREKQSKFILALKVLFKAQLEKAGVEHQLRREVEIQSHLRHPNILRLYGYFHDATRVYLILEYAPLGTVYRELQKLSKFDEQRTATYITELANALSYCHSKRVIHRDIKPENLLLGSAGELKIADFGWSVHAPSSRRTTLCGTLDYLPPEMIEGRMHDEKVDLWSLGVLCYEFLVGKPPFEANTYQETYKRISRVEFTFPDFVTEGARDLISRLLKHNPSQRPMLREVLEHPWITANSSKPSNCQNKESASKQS
In kind it is functional.

In assay [20] the target is Tyrosine-protein kinase Lyn (Homo sapiens, UniProt P07948). In kind it is functional.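 Further: lyn as one member of a kinase panel.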
Assay [21] deals with Ribosomal protein S6 kinase alpha-5 (Homo sapiens, UniProt O75582). In kind it is functional.
Assay [22] deals with Calcium/calmodulin-dependent protein kinase type II subunit alpha (Homo sapiens, UniProt Q9UQM7). The assay can be described thus: Navigating the Kinome. Panel member name: CAMK2A. In kind it is functional.
Sequence of Calcium/calmodulin-dependent protein kinase type II subunit alpha (Q9UQM7 whole entry): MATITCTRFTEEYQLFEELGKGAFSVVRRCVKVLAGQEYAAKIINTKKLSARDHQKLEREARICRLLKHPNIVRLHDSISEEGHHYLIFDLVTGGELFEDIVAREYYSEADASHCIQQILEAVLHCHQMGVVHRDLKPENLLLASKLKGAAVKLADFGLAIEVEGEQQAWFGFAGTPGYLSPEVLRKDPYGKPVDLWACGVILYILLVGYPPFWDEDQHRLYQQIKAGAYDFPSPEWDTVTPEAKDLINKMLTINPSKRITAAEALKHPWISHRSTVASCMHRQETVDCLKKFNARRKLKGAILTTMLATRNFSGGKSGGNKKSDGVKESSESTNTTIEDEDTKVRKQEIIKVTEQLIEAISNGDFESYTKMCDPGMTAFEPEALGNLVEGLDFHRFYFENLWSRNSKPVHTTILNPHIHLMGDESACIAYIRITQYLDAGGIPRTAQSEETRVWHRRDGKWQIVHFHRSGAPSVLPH
The target of assay [23] is Tyrosine-protein kinase JAK3 (Homo sapiens, UniProt P52333). In kind it is functional.
Assay [24] has as its target cAMP-dependent protein kinase catalytic subunit PRKX (Homo sapiens, UniProt P51817). In kind it is functional.
Assay [25] deals with Serine/threonine-protein kinase PAK 4 (Homo sapiens, UniProt O96013). In kind it is functional.
Sequence of Serine/threonine-protein kinase PAK 4 (O96013 whole entry): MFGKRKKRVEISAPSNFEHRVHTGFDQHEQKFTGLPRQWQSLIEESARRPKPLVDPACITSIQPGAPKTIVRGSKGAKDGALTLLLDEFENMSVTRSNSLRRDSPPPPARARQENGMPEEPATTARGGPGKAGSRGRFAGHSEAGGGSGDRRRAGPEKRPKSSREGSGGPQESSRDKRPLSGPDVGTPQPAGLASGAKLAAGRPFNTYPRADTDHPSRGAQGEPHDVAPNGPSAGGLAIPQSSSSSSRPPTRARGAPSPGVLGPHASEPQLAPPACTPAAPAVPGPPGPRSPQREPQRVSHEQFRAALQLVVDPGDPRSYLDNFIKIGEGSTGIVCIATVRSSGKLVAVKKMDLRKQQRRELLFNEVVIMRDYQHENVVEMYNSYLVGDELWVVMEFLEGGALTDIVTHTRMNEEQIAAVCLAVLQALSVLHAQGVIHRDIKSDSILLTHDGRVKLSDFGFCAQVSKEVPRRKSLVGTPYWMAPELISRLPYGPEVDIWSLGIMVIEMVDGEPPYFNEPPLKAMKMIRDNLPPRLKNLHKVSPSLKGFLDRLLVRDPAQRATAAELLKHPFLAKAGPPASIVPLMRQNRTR
The target in assay [26] is Mitogen-activated protein kinase kinase kinase 10 (Homo sapiens, UniProt Q02779). The assay can be described thus: Navigating the Kinome. Panel member name: MAP3K10. In kind it is functional.
Sequence of Mitogen-activated protein kinase kinase kinase 10 (Q02779 whole entry): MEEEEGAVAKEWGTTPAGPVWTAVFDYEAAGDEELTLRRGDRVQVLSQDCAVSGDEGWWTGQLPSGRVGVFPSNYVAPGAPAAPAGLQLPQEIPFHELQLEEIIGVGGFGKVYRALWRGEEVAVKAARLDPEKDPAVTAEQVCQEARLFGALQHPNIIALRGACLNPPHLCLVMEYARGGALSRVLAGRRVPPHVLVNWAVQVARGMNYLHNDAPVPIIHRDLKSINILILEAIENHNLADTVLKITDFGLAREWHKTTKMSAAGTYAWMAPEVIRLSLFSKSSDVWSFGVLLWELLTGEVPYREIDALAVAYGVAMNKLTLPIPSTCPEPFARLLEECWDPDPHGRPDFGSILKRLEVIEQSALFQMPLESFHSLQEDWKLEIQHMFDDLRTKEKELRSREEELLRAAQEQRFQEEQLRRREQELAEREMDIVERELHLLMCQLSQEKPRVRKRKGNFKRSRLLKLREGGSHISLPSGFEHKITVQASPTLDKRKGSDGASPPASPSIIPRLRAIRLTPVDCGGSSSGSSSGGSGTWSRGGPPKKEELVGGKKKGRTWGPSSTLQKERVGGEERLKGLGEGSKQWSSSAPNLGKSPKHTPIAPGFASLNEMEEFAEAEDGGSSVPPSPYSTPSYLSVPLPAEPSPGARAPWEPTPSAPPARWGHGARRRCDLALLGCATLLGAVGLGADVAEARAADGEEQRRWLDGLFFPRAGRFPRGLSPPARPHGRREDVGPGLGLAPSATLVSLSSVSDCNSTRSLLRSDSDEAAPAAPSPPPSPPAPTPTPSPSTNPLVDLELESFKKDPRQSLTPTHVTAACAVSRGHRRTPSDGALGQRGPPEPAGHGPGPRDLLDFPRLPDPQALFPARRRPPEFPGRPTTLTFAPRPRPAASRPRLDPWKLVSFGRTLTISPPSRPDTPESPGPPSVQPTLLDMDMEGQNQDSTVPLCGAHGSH
Assay [27] concerns the target Serine/threonine-protein kinase Nek2 (Homo sapiens, UniProt P51955). In kind it is functional.

Calls of active or inactive are those of the source.

Sequence of Casein kinase I isoform gamma-1 (Q9HCP0 whole entry, canonical isoform): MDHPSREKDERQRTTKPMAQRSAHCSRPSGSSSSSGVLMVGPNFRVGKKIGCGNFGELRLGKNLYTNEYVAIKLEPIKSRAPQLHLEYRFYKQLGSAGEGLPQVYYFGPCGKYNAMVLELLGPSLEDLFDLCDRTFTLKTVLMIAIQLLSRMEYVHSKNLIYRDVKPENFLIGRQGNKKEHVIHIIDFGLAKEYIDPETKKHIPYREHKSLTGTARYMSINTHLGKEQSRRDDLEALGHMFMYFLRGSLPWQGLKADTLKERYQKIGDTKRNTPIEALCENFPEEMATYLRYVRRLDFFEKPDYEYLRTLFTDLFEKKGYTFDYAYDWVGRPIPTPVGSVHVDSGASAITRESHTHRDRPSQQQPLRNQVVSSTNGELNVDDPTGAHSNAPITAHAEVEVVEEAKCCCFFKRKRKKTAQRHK
Sequence of Serine/threonine-protein kinase Nek4 (P51957 whole entry): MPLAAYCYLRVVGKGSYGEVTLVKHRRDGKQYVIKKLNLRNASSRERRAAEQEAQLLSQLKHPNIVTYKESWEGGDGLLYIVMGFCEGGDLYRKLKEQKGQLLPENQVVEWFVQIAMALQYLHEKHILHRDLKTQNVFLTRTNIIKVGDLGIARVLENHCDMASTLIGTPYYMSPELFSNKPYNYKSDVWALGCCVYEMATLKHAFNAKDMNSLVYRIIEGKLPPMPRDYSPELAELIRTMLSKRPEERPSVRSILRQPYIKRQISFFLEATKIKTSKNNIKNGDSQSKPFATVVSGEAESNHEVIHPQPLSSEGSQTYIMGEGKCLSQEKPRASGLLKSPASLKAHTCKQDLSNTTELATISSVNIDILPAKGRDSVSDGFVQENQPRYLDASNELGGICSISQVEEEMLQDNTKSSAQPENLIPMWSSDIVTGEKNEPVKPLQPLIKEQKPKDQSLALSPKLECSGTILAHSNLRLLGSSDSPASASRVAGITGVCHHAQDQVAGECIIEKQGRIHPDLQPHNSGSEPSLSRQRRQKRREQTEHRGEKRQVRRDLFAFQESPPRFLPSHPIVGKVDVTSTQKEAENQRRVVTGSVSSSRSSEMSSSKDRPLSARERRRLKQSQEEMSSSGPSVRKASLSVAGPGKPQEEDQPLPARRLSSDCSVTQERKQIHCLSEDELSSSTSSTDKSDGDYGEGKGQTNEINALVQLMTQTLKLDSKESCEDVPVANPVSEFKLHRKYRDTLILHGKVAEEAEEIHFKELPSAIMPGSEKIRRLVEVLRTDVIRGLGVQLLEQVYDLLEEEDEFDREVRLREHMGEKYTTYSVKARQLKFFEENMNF

What is called EC50 is the concentration that produces a half-maximal response. The AC50 is the concentration giving half of the maximal activity seen. Regarding `CCCn1nc([N+](=O)[O-])c(C(C#N)c2nc3ccccc3s2)c(Cl)c1=O` (configuration not stated), the concentration for a half-maximal effect (EC50) in assay [1] is 10700 nM (active). Besides, the AC50 in assay [2] is 4720 nM (active).
By Ki is commonly meant a dissociation constant, usually derived from enzyme kinetics or from competition with a known ligand. For `NCCCn1cc(-c2cc(-c3cc4ccccc4s3)c3[nH]ncc3c2)c2nc(N)ncc21`, the inhibitory constant (Ki) in assay [3] is 200 nM (active); in assay [4], > 1580 nM (inactive); in assay [5], 1260 nM (active); in assay [6], > 2510 nM (inactive); in [7] it was 2000 nM (active); in assay [8], 398 nM (active). The Ki in [9] was > 1580 nM (inactive); in [10], 1580 nM (active); in assay [11], 251 nM (active); in [12] it was 251 nM (active); in assay [13] it was 79.4 nM (active); in assay [14], 2510 nM (active). In addition, the Ki in assay [15] was > 2000 nM (inactive); in assay [16] it was 100 nM (active); in assay [17], 50.1 nM (active); in [18] it was 63.1 nM (active); in [19], > 1580 nM (inactive); in assay [20] it was > 1580 nM (inactive). The Ki in [21] was 631 nM (active); in [22] it was > 5010 nM (inactive); in [23] it was > 3980 nM (inactive); in [24] it was 3.16 nM (active); in assay [25], 2510 nM (active); in assay [26], 126 nM (active). Besides, in assay [27], the Ki is > 10000 nM (inactive).
